Series [1] in a line: hygroscopicity measurement (weight vs relative humidity on storage). It counts as physicochemical. As to conditions: for hygroscopicity: about 87% relative humidity, ambient temperature. How it is done: FIG. 3: Weight (Pct) - Relative humidity (Pct).
As used herein, the term “non-hygroscopic” when used to describe a composition of matter means that the composition of matter absorbs moisture at a rate of less than about 0.4% over 24 hours at 90% relative humidity.
A particular advantage conferred by this form is its lack of hygroscopicity.
From this and other data, it has been determined that crystalline anhydrous CP-472,295 is non-hygroscopic at about 87% relative humidity for about 72 hours at ambient temperature. This unexpected property allows the low-cost, efficient handling and storage of the drug, and the facile incorporation of accurate amounts of the drug into a variety of dosage forms.
Crystalline CP-472,295 monohydrate, like the crystalline anhydrous form described above, is advantageously non-hygroscopic. […] From this and other data, it has been determined that crystalline CP-472,295 monohydrate is non-hygroscopic at about 87% relative humidity for about 7 days at ambient temperature. This unexpected property allows the low-cost, efficient handling and storage of the drug, and the facile incorporation of accurate amounts of the drug into a variety of dosage forms.
By contrast, the pseudomorph formed when the monohydrate loses water is hygroscopic, and reabsorbs the water of hydration within about 4 hours when stored at about 87% relative humidity at ambient temperature.

Series [2] can be described thus: water loss under routine handling conditions. In kind it is physicochemical. The conditions noted are these: routine handling conditions (e.g., 25° C. and 70% relative humidity).

For the compound `CCCNC[C@]1(O)[C@H](C)O[C@@H](O[C@H]2[C@H](C)[C@@H](O[C@@H]3O[C@H](C)C[C@H](N(C)C)[C@H]3O)[C@@](C)(O)C[C@@H](C)CN[C@H](C)[C@@H](O)[C@](C)(O)[C@@H](CC)OC(=O)[C@@H]2C)C[C@@]1(C)OC` [crystalline CP-472,295 monohydrate], the hygroscopicity result in series [1] (about 7 days) was “non-hygroscopic (absorbs moisture at a rate of less than about 0.4% over 24 hours at 90% relative humidity)”. In the case of `CCCNC[C@]1(O)[C@H](C)O[C@@H](O[C@H]2[C@H](C)[C@@H](O[C@@H]3O[C@H](C)C[C@H](N(C)C)[C@H]3O)[C@@](C)(O)C[C@@H](C)CN[C@H](C)[C@@H](O)[C@](C)(O)[C@@H](CC)OC(=O)[C@@H]2C)C[C@@]1(C)OC` [crystalline CP-472,295 sesquahydrate], the “loss of water (stability of hydrate)” value in series [2] is reported as “readily loses water”. For `CCCNC[C@]1(O)[C@H](C)O[C@@H](O[C@H]2[C@H](C)[C@@H](O[C@@H]3O[C@H](C)C[C@H](N(C)C)[C@H]3O)[C@@](C)(O)C[C@@H](C)CN[C@H](C)[C@@H](O)[C@](C)(O)[C@@H](CC)OC(=O)[C@@H]2C)C[C@@]1(C)OC` [crystalline anhydrous CP-472,295], in series [1] (about 72 hours), the hygroscopicity entry is reported as “non-hygroscopic (absorbs moisture at a rate of less than about 0.4% over 24 hours at 90% relative humidity)”. Take `CCCNC[C@]1(O)[C@H](C)O[C@@H](O[C@H]2[C@H](C)[C@@H](O[C@@H]3O[C@H](C)C[C@H](N(C)C)[C@H]3O)[C@@](C)(O)C[C@@H](C)CN[C@H](C)[C@@H](O)[C@](C)(O)[C@@H](CC)OC(=O)[C@@H]2C)C[C@@]1(C)OC` [pseudomorph]: the hygroscopicity entry in series [1] (pseudomorph formed when the monohydrate loses water) is “hygroscopic”. Also, in series [1] (stored at about 87% relative humidity at ambient temperature), the “time to reabsorb the water of hydration” value is not above 4 h.

For the origin of these results see patent publication US6583274B1, “Crystalline forms of macrolide antibiotic” (Pfizer Inc., priority 1999, dated 2003).
